Measured values: ChEMBL document CHEMBL1139019, “Tricyclic azepine derivatives: pyrimido[4,5-b]-1,4-benzoxazepines as a novel class of epidermal growth factor receptor kinase inhibitors” (Bioorg Med Chem Lett, 2006)

What was measured:
[1] = biological target: T1, Epidermal growth factor receptor (Homo sapiens, UniProt P00533); assay: Inhibition of EGFR autophosphorylation in DiFi cells
[2] = biological target: T1, Epidermal growth factor receptor

T1 sequence (P00533 whole entry): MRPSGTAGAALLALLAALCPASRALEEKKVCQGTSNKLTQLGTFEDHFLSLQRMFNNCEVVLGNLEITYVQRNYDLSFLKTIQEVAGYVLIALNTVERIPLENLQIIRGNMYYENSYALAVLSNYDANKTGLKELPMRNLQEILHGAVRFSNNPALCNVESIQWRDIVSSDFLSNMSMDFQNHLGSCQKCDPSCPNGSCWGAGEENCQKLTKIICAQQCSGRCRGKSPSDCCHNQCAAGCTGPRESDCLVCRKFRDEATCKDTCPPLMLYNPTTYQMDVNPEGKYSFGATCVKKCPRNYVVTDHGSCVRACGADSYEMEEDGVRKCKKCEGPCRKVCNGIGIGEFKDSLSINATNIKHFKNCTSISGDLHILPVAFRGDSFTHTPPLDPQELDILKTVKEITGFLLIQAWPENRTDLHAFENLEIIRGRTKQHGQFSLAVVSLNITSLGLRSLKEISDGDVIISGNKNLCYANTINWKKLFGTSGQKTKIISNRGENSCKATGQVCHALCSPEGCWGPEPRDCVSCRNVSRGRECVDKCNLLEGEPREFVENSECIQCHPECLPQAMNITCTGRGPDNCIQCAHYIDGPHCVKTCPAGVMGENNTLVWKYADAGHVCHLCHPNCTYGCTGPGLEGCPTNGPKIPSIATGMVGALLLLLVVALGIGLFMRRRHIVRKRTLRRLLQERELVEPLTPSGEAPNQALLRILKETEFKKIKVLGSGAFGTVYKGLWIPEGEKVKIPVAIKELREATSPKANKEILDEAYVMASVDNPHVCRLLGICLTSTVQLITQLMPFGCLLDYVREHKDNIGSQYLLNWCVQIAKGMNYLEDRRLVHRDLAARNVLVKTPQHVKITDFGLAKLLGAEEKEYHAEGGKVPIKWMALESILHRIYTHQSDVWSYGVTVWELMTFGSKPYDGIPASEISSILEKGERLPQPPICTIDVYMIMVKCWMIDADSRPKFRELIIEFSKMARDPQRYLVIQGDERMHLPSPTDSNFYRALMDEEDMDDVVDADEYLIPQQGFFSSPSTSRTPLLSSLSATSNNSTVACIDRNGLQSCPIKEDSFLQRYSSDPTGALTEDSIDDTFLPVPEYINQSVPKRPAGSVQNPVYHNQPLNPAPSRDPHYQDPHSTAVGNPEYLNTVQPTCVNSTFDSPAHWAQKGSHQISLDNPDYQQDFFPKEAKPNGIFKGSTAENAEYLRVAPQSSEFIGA

IC50 [1]	IC50 [2]	SMILES
> 30 µM	8.9 µM	Fc1ccc2c(c1)CNc1c(NCc3ccccc3)ncnc1O2
> 30 µM	1.7 µM	Nc1ccc2c(c1)CNc1c(Nc3cccc(Br)c3)ncnc1O2
8.5 µM	2 µM	COc1ccc2c(c1)CNc1c(NCc3ccccc3)ncnc1O2
1.9 µM	3 µM	COc1ccc2c(c1)Oc1ncnc(Nc3cccc(Br)c3)c1NC2
> 30 µM	3.4 µM	Clc1ccc2c(c1)CNc1c(Nc3cccc(Br)c3)ncnc1O2
7.2 µM	1 µM	Brc1cccc(Nc2ncnc3c2NCc2cc(Br)ccc2O3)c1
0.47 µM	0.34 µM	COc1cc2c(cc1OC)Oc1ncnc(Nc3cccc(Br)c3)c1NC2
–	7 µM	Fc1ccc2c(c1)CNc1c(Nc3ccccc3)ncnc1O2
7 µM	4.1 µM	CS(=O)(=O)Nc1ccc2c(c1)CNc1c(Nc3cccc(Br)c3)ncnc1O2
6.9 µM	1.5 µM	Fc1ccc2c(c1)CNc1c(Nc3cccc(Br)c3)ncnc1O2
1 µM	3.1 µM	COc1ccc2c(c1)CNc1c(Nc3cccc(Br)c3)ncnc1O2
> 30 µM	1 µM	O=C(O)c1ccc2c(c1)CNc1c(Nc3cccc(Br)c3)ncnc1O2
–	> 10 µM	CS(=O)(=O)Nc1ccc2c(c1)CNc1c(Nc3ccc(F)c(Cl)c3)ncnc1O2
–	10 µM	Brc1ccc2c(c1)CNc1c(Nc3ccccc3)ncnc1O2
9.9 µM	2 µM	Fc1ccc2c(c1)CNc1c(Nc3cccc(-c4ccccc4)c3)ncnc1O2
0.69 µM	1.2 µM	COc1cc2c(cc1OC)Oc1ncnc(Nc3ccc(F)c(Cl)c3)c1NC2
2.7 µM	1.1 µM	Fc1ccc(Nc2ncnc3c2NCc2ccccc2O3)cc1Cl

IC50 [1]	IC50 [2]	SMILES
–	5.8 µM	COc1ccc2c(c1)CNc1c(Nc3ccc(Cl)cc3)ncnc1O2
8.9 µM	4.9 µM	C=CC(=O)Nc1ccc2c(c1)CNc1c(Nc3ccc(F)c(Cl)c3)ncnc1O2
7.2 µM	1 µM	Fc1ccc2c(c1)CNc1c(Nc3ccc(F)c(Cl)c3)ncnc1O2
9.1 µM	3.7 µM	Nc1ccc2c(c1)CNc1c(Nc3ccc(F)c(Cl)c3)ncnc1O2
–	7.5 µM	COc1ccc2c(c1)CNc1c(Nc3ccccc3)ncnc1O2
8.9 µM	1 µM	COc1ccc2c(c1)Oc1ncnc(Nc3ccc(F)c(Cl)c3)c1NC2
8.4 µM	2 µM	Fc1ccc(Nc2ncnc3c2NCc2cc(Br)ccc2O3)cc1Cl
–	> 10 µM	FC(F)(F)Oc1ccc2c(c1)CNc1c(Nc3cccc(Br)c3)ncnc1O2
4.3 µM	1 µM	Fc1ccc(Nc2ncnc3c2NCc2cc(Cl)ccc2O3)cc1Cl
> 30 µM	6.3 µM	COc1cc(OC)c2c(c1)Oc1ncnc(Nc3cccc(Br)c3)c1NC2
–	> 10 µM	Fc1ccc2c(c1)CNc1c(Nc3ccc(Cl)cc3)ncnc1O2
5.4 µM	5.7 µM	C=CC(=O)Nc1ccc2c(c1)CNc1c(Nc3cccc(Br)c3)ncnc1O2
9.8 µM	> 10 µM	COc1ccc2c(c1)CNc1c(Nc3cccc(-c4ccccc4)c3)ncnc1O2
–	> 10 µM	COc1cccc2c1CNc1c(Nc3cccc(Br)c3)ncnc1O2
2.4 µM	0.9 µM	COc1ccc2c(c1)CNc1c(Nc3ccc(F)c(Cl)c3)ncnc1O2
> 30 µM	4.4 µM	O=C(O)c1ccc2c(c1)CNc1c(Nc3ccc(F)c(Cl)c3)ncnc1O2
